{
  "source": "paper PMC9312114",
  "about": "“Synthesis and Evaluation of Novel DNA Minor Groove Binders as Antiamoebic Agents” (Antibiotics, 2022)",
  "key": {"[1]": {"system": "Acanthamoeba castellanii cysts", "assay": "Excystation assay", "format": "cell-based", "conditions": "cysts in PYG, negative control 100%, read-out: viable trophozoites (re-emergence of cysts to trophozoites)", "method": "Amoeba culture was suspended in 3 mL phosphate-buffered saline (PBS) and placed on non-nutrient bacteriological agar plates to allow for the growing of Acanthamoeba castellanii cysts. After two weeks, PBS was applied to plates containing amoeba cysts, which were then scraped off. The amoebae were centrifuged at 3000× g for 10 min, and the resulting pellet was resuspended in RPMI. The 5 × 10^5 cysts were then incubated in PYG, along with 50 µM of the compounds. To ensure accuracy, amoeba cysts in PYG alone were considered as the negative control, whereas amoeba cysts in RPMI alone were taken as the positive control, as the cysts would not be able to revert back to trophozoites. The amoeba trophozoites were then numbered by using a haemocytometer."}, "[2]": {"system": "Acanthamoeba castellanii on HeLa cell monolayers", "assay": "Cytopathogenicity assay (amoeba-mediated host-cell death)", "format": "cell-based", "conditions": "amoebae pretreated with 50 µM for 2 h, then 24 h on HeLa cells, negative control 100%", "method": "Amoeba-mediated host-cell death was determined by treating 5 × 10^5 amoebae with 50 µM of compounds. The amoeba-containing plate was then placed in the incubator for 2 h at 30 °C. Following the 2 h incubation period, the treated amoebae were put on confluent HeLa cell monolayers. The plate containing the treated amoebae and HeLa cells was incubated for 24 h. Progressing the incubation period, the supernatant was collected, and the cytotoxicity was determined. Accurate results were ensured through the addition of negative and positive controls. The untreated amoebae, alone, on the cells served as the negative control, while the cells treated with Triton X-100 served as the positive control."}, "[3]": {"system": "HeLa cells", "assay": "Cytotoxicity assay (LDH release)", "format": "cell-based, human", "conditions": "50 µM, 24 h, LDH release, Triton X-100 = 100%", "method": "HeLa cells were acquired from American Type Culture Collection (ATCC) of identification ATCC CCL-2, Singapore. The cells are utilized to conduct cytotoxicity and cytopathogenicity assays. Through their cultivation in complete media, the cells were grown, and then they were placed in a 95% humidifying incubator at 37 °C and 5% CO2. Complete medium comprises Roswell Park Memorial Media (RPMI), 1% penicillin–streptomycin, 1% minimum essential medium amino acids, 1% L-glutamine, and 10% fetal bovine serum (FBS). To determine the toxicity of the compounds against human HeLa cells, cytotoxicity assays were conducted. In short, HeLa cells were cultured in 96-well plates and treated with the compounds. The plate was then placed in a humidifying incubator with 95% humidity and 5% CO2, at 37 °C, for 24 h. After 24 h, the supernatant was collected, and the cytotoxicity of the compounds was determined through a cytotoxicity detection kit that measured the quantity of lactate dehydrogenase (LDH) release. Accurate results were ensured through the addition of positive and negative controls. Untreated HeLa cells served as the negative control, whereas HeLa cells treated with 1% Triton X-100 served as the positive control. Finally, the cytotoxic properties were numerically determined by following the necessary calculations: (absorbance of media from cells treated with the drugs—absorbance of media from cells of negative control)/(absorbance of media from cells of positive control—absorbance of media from cells of negative control) × 100 [19]."}, "[4]": {"system": "Acanthamoeba castellanii", "assay": "Amoebicidal assay", "format": "cell-based, Acanthamoeba castellanii genotype T4 (ATCC 50492)", "method": "Acanthamoeba castellanii genotype T4 (ATCC 50492) was cultivated in 10 mL growth medium of peptone yeast glucose (PYG) in tissue flasks (Baig, et al., 2021; Anwar, et al., 2019). The growth medium, PYG, consists of 0.75% proteose peptone, 0.75% yeast extract, and 1.5% glucose. Next, the amoebae were kept in tissue flasks and incubated at 30 °C.\nTo determine the compounds’ antiamoebic effects, amoebicidal assays were conducted. The 5 × 10^5 amoebae were placed in a 24-well plate and brought to a final volume of 500 µL. […] The 24-well plate was then placed in a 30 °C incubator for 24 h. Positive and negative controls were added to the assay in order to ensure reliable results. Serving as the negative control was the amoebae alone, with RPMI [4]. Meanwhile, amoebae, along with 0.25% sodium dodecyl sulphate (SDS), were used as the positive control. Through the addition of 0.1% methylene blue, live and dead amoebae were distinguished. Additionally, significant compounds were identified by conducting a Student’s t-test with a two-tailed distribution. Furthermore, the MIC50 values of three compounds were determined by using concentrations of […], 75, and 100 µM."}, "[5]": {"system": "Acanthamoeba castellanii", "assay": "Encystation assay", "format": "cell-based", "conditions": "16% glucose, 48 h, negative control 100% cysts", "method": "The effects of the compounds on amoeba encystation were determined through the conduction of encystation assays. Briefly, 1 × 10^6 trophozoites were incubated with the compounds in a final concentration of 16% filter-sterilized glucose. Following a 48 h incubation period, 0.1% SDS was added per well for 20 min. The cysts were then counted by using a haemocytometer. To ensure accuracy, Acanthamoeba castellanii was cultured in 16% glucose, serving as the negative control."}, "[6]": {"system": "DNA", "assay": "Biophysical analysis of binding with DNA", "conditions": "in words"}},
  "data": [
    {"smiles": "CN(C)CCCNC(=O)c1cc(NC(=O)c2cc(NC(=O)c3cc(NC(=O)c4nccn4C)cn3C)cn2C)cn1C", "note": "[MGB5, N-(5-((5-((5-((3-(dimethylamino)propyl)carbamoyl)-1-methyl-1H-pyrrol-3-yl)carbamoyl)-1-methyl-1H-pyrrol-3-yl)carbamoyl)-1-methyl-1H-pyrrol-3-yl)-1-methyl-1H-imidazole-2-carboxamide]", "values": [
      {"measurement": "viability at 50 µM", "setting": "[1]", "value": 80.8, "unit": "%"},
      {"measurement": "amoeba-mediated host-cell death (cytotoxic activity due to amoeba)", "setting": "[2]", "value": 57.8, "unit": "%"},
      {"measurement": "cytotoxicity against human HeLa cells", "setting": "[3]", "value": 10.9, "unit": "%"},
      {"measurement": "viability at 50 µM", "setting": "[4]; Acanthamoeba castellanii, 50 µM, 24 h, negative control 100%, read-out: amoeba viability", "value": 98.4, "unit": "%"},
      {"measurement": "activity against Acanthamoeba castellanii", "setting": "[4]; in words", "value": "no activity"},
      {"measurement": "cysts present", "setting": "[5]", "value": 48.3, "unit": "%"},
      {"measurement": "ability to bind with DNA", "setting": "[6]", "value": "bind with DNA"}
    ]}
  ]
}
